COc1cc(CC#N)cc(OC)c1OC
solubility (mole fraction) (in DMF, 283.15 K): 0.102 | solubility (mole fraction) (in DMF, 288.15 K): 0.127 | solubility (mole fraction) (in DMF, 293.15 K): 0.158 | solubility (mole fraction) (in DMF, 298.15 K): 0.195 | solubility (mole fraction) (in DMF, 303.15 K): 0.239 | solubility (mole fraction) (in DMF, 308.15 K): 0.289 | solubility (mole fraction) (in DMF, 313.15 K): 0.35 | solubility (mole fraction) (in DMF, 318.15 K): 0.418 | solubility (mole fraction) (in DMF, 323.15 K): 0.497 | solubility (mole fraction) (in cyclohexane, 283.15 K): 0.000133 | solubility (mole fraction) (in cyclohexane, 288.15 K): 0.000248 | solubility (mole fraction) (in cyclohexane, 293.15 K): 0.000452 | solubility (mole fraction) (in cyclohexane, 298.15 K): 0.000814 | solubility (mole fraction) (in cyclohexane, 303.15 K): 0.00154 | solubility (mole fraction) (in cyclohexane, 308.15 K): 0.00253 | solubility (mole fraction) (in cyclohexane, 313.15 K): 0.00421 | solubility (mole fraction) (in cyclohexane, 318.15 K): 0.00671 | solubility (mole fraction) (in cyclohexane, 323.15 K): 0.011 | solubility (mole fraction) (in ethanol, 283.15 K): 0.00753 | solubility (mole fraction) (in ethanol, 288.15 K): 0.00999 | solubility (mole fraction) (in ethanol, 293.15 K): 0.0141 | solubility (mole fraction) (in ethanol, 298.15 K): 0.0209 | solubility (mole fraction) (in ethanol, 303.15 K): 0.0327 | solubility (mole fraction) (in ethanol, 308.15 K): 0.0539 | solubility (mole fraction) (in ethanol, 313.15 K): 0.0927 | solubility (mole fraction) (in ethanol, 318.15 K): 0.167 | solubility (mole fraction) (in ethanol, 323.15 K): 0.312 | solubility (mole fraction) (in ethyl acetate, 283.15 K): 0.0517 | solubility (mole fraction) (in ethyl acetate, 288.15 K): 0.076 | solubility (mole fraction) (in ethyl acetate, 293.15 K): 0.107 | solubility (mole fraction) (in ethyl acetate, 298.15 K): 0.146 | solubility (mole fraction) (in ethyl acetate, 303.15 K): 0.195 | solubility (mole fraction) (in ethyl acetate, 308.15 K): 0.25 | solubility (mole fraction) (in ethyl acetate, 313.15 K): 0.315 | solubility (mole fraction) (in ethyl acetate, 318.15 K): 0.386 | solubility (mole fraction) (in ethyl acetate, 323.15 K): 0.461 | solubility (mole fraction) (in isopropanol, 283.15 K): 0.00545 | solubility (mole fraction) (in isopropanol, 288.15 K): 0.00703 | solubility (mole fraction) (in isopropanol, 293.15 K): 0.00942 | solubility (mole fraction) (in isopropanol, 298.15 K): 0.0134 | solubility (mole fraction) (in isopropanol, 303.15 K): 0.0199 | solubility (mole fraction) (in isopropanol, 308.15 K): 0.0305 | solubility (mole fraction) (in isopropanol, 313.15 K): 0.0497 | solubility (mole fraction) (in isopropanol, 318.15 K): 0.0838 | solubility (mole fraction) (in isopropanol, 323.15 K): 0.146 | solubility (mole fraction) (in isopropyl acetate, 283.15 K): 0.0389 | solubility (mole fraction) (in isopropyl acetate, 288.15 K): 0.0537 | solubility (mole fraction) (in isopropyl acetate, 293.15 K): 0.0736 | solubility (mole fraction) (in isopropyl acetate, 298.15 K): 0.101 | solubility (mole fraction) (in isopropyl acetate, 303.15 K): 0.135 | solubility (mole fraction) (in isopropyl acetate, 308.15 K): 0.182 | solubility (mole fraction) (in isopropyl acetate, 313.15 K): 0.243 | solubility (mole fraction) (in isopropyl acetate, 318.15 K): 0.321 | solubility (mole fraction) (in isopropyl acetate, 323.15 K): 0.423 | solubility (mole fraction) (in methanol, 283.15 K): 0.00958 | solubility (mole fraction) (in methanol, 288.15 K): 0.0128 | solubility (mole fraction) (in methanol, 293.15 K): 0.0179 | solubility (mole fraction) (in methanol, 298.15 K): 0.0261 | solubility (mole fraction) (in methanol, 303.15 K): 0.0402 | solubility (mole fraction) (in methanol, 308.15 K): 0.0638 | solubility (mole fraction) (in methanol, 313.15 K): 0.106 | solubility (mole fraction) (in methanol, 318.15 K): 0.183 | solubility (mole fraction) (in methanol, 323.15 K): 0.327 | solubility (mole fraction) (in n-butanol, 283.15 K): 0.00774 | solubility (mole fraction) (in n-butanol, 288.15 K): 0.00978 | solubility (mole fraction) (in n-butanol, 293.15 K): 0.0129 | solubility (mole fraction) (in n-butanol, 298.15 K): 0.018 | solubility (mole fraction) (in n-butanol, 303.15 K): 0.0265 | solubility (mole fraction) (in n-butanol, 308.15 K): 0.0409 | solubility (mole fraction) (in n-butanol, 313.15 K): 0.0657 | solubility (mole fraction) (in n-butanol, 318.15 K): 0.111 | solubility (mole fraction) (in n-butanol, 323.15 K): 0.193 | solubility (mole fraction) (in n-heptane, 283.15 K): 5.37e-05 | solubility (mole fraction) (in n-heptane, 288.15 K): 0.000146 | solubility (mole fraction) (in n-heptane, 293.15 K): 0.000336 | solubility (mole fraction) (in n-heptane, 298.15 K): 0.000693 | solubility (mole fraction) (in n-heptane, 303.15 K): 0.00141 | solubility (mole fraction) (in n-heptane, 308.15 K): 0.00222 | solubility (mole fraction) (in n-heptane, 313.15 K): 0.00361 | solubility (mole fraction) (in n-heptane, 318.15 K): 0.00573 | solubility (mole fraction) (in n-heptane, 323.15 K): 0.00905 | solubility (mole fraction) (in n-hexane, 283.15 K): 0.000515 | solubility (mole fraction) (in n-hexane, 288.15 K): 0.000732 | solubility (mole fraction) (in n-hexane, 293.15 K): 0.00107 | solubility (mole fraction) (in n-hexane, 298.15 K): 0.0016 | solubility (mole fraction) (in n-hexane, 303.15 K): 0.00233 | solubility (mole fraction) (in n-hexane, 308.15 K): 0.0035 | solubility (mole fraction) (in n-hexane, 313.15 K): 0.00533 | solubility (mole fraction) (in n-hexane, 318.15 K): 0.00803 | solubility (mole fraction) (in n-hexane, 323.15 K): 0.0121 | solubility (mole fraction) (in n-propanol, 283.15 K): 0.00747 | solubility (mole fraction) (in n-propanol, 288.15 K): 0.00951 | solubility (mole fraction) (in n-propanol, 293.15 K): 0.0127 | solubility (mole fraction) (in n-propanol, 298.15 K): 0.0179 | solubility (mole fraction) (in n-propanol, 303.15 K): 0.0264 | solubility (mole fraction) (in n-propanol, 308.15 K): 0.041 | solubility (mole fraction) (in n-propanol, 313.15 K): 0.0658 | solubility (mole fraction) (in n-propanol, 318.15 K): 0.111 | solubility (mole fraction) (in n-propanol, 323.15 K): 0.191 | solubility (mole fraction) (in sec-butanol, 283.15 K): 0.00911 | solubility (mole fraction) (in sec-butanol, 288.15 K): 0.0137 | solubility (mole fraction) (in sec-butanol, 293.15 K): 0.0206 | solubility (mole fraction) (in sec-butanol, 298.15 K): 0.0314 | solubility (mole fraction) (in sec-butanol, 303.15 K): 0.0481 | solubility (mole fraction) (in sec-butanol, 308.15 K): 0.0755 | solubility (mole fraction) (in sec-butanol, 313.15 K): 0.118 | solubility (mole fraction) (in sec-butanol, 318.15 K): 0.189 | solubility (mole fraction) (in sec-butanol, 323.15 K): 0.301
